Data as given in article PMC10761119, “Phosphorylation-state dependent intraneuronal sorting of Aβ differentially impairs autophagy and the endo-lysosomal system” (Autophagy, 2023).

Legend:
primary cortical neurons = assay: Subcellular fractionation by differential centrifugation and Aβ ELISA; type: cell-based, mouse; conditions: Aβ 500 nM, 4 h; for Aβ levels in the isolated membrane fraction (16,100 g pellet): ELISA 82E1, n = 6, N = 3
Method: [Worded in the source for another cell line; used here, by the source, with some conditions changed.] SH-SY5Y cells seeded on D1, were treated with Aβ variants (1 μM) on D3 in DMEM/F-12 media without serum and antibiotics. Control treatment included treatment with equal volume of 10 mM NaOH solution used for preparing the Aβ stock solutions, in respective cell culture medium. SH-SY5Y cells, after 16 h of transient expression of the reporter constructs, were treated with different Aβ variants, autophagy modulator substrates and respective controls in DMEM/F-12, FCS^− PS^− media for the mentioned time points. After treatment, cells were washed twice with PBS and with 0.025% trypsin-EDTA in PBS to get rid of cell bound Aβ, followed by subsequent washings with PBS again. Cells were either collected by scraping using a cell-scraper or fixed with 4% PFA-PBS for 15 min at RT, for further immunocytochemistry experiments. Collected treatment media was centrifuged at 1000 g for 5 min, pellet discarded and supernatant frozen at −20°C until further usage.
Cells were collected by scraping and mechanically homogenized in hypotonic D buffer (10 mM Tris-HCl, pH 7.4, 10 mM NaCl, 0.1 mM EGTA, 25 mM glycerol 2-phosphate, 1 mM DTT) containing protease and phosphatase inhibitors by repeated suspension through a 23 G × 1” needle. Post-nuclear supernatant (PNS) was collected by centrifugation of the mechanically homogenized cellular material at 2,000 g for 5 min. The pellet was the nuclear material. […] The nuclear fraction was the supernatant collected after centrifugation at 16,100 g for 15 min. The PNS collected from the first step was centrifuged at 16,100 g for 60 min, and supernatant was used as the crude cytosolic fraction. The pellet contained the membrane materials, which were re-homogenized in hypotonic D buffer and again centrifuged at 16,100 g for 60 min. The supernatant was discarded, pellet was resuspended in STEN-lysis buffer (20 mM Tris-HCl, pH 7.5, 150 mM NaCl, 1 mM EDTA, 1 mM EGTA, 1% Triton X-100, 2.5 mM sodium pyrophosphate [Sigma Aldrich, P1835], 1 mM β-glycerophosphate [Sigma Aldrich, G9422]) containing protease and phosphatase inhibitors, and the membrane fraction was the supernatant collected after centrifugation at 16,100 g for 15 min. The crude cytosolic fraction was then further fractionated at 100,000 g for 70 min at 4°C under vacuum. The resultant supernatant was the soluble cytosolic fraction. The pellet was resuspended in STEN lysis buffer and centrifuged at 16,100 g for 15 min. The resultant supernanant represented the insoluble cytosolic fraction.
Wells were further tapped dry and incubated with 4G8-biotin/82E1-biotin detection antibodies (0.05–0.1 μg/well) at RT for 2 h followed by subsequent washing and incubation with streptavidin conjugated HRP complex (1:5000) for another 2 h. Wells were then washed thoroughly four times and filled with 100 µl of 3,3,5,5-tetramethylbenzidine substrate (TMB; ThermoFisher Scientific, N301) in each well and incubated at 25°C until sufficient blue color developed (time ranged from 2–15 min depending on the different capture antibodies used in the experiment). 100 µl of stop solution (4 M H2SO4) was added to each well. Absorbance values from each well were read at a Tecan plate reader at a wavelength of 450 nm and background measurement at 620 nm. Multiple readings were recorded for a single well and averaged. In each experiment, each sample was analyzed in technical duplicate/triplicate wells as indicated and average values from an independent experiment are presented (Figures 1E, 3G, SA-D and Table S2).

SH-SY5Y cells = assay: Lysosomal acidification assay using LysoSensor-dextran; type: cell-based, human; conditions: Aβ 1 µM, within 24 h of incubation; ΔpH = pHfinal (t = 24 h) − pHinitial (control, t = 0 h); n = 12, N = 4
Method: Cells were cultured on coverslips and treated with Aβ variants (primary cortical neurons, DIV14–500 nM, 4 h; SH-SY5Y cells, D3–1 μM, 24 h) in presence of 50 µM LysoSensor-dextran probe (ThermoFisher Scientific, L7545) in cell culture media for the indicated time points. Cells were washed and stained as described before. For fluorescence analyses, cells were cultured and treated in a 96-well plate for the indicated time points, and washed thrice with PBS to remove the excess probe. Fluorescence intensity analysis of blue and green channel was done using a multiplate reader (Tecan Life Sciences, Switzerland). […] was computed from the fluorescence values measured at λEx 340 nm and λEm 450 nm (blue channel) and λEm 535 nm (green channel), respectively. Values were normalized to absorbance at 340 nm and protein content per well, and represented as change of LysoSensor acidification with respect to control cells (Figure 7B and S7C-D). pH values were computed by preparing a standard curve, wherein cells treated with 1 µM nigericin (Sigma Aldrich, N7143) and 1 µM monensin (Sigma Aldrich, M5273) were incubated with media of pH 4.5, 7.5 and 9.2. As independent controls, 100 nM bafilomycin A1 (Sigma Aldrich, 553210), 1 mM NH4Cl- and 10 µM rapamycin (Cayman Chemicals, 19438)-treated cells were also used as independent controls to validate the measurements. Change in LysoSensor pH (ΔpH) for Aβ treated cells was quantified using the formula ΔpH = pHfinal (control/Aβ, t = 24 h) − pHinitial (control, t = 0 h). Box plots (Figure 7C and S7E) depict the overall distribution of data, and each data point represents average values from an independent experiment; n = 12, N = 4.

With “amyloid-β phosphorylated at serine residue 26 [p-Ser26Aβ]” as the substance, how does the “Aβ levels in the isolated membrane fraction (16,100 g pellet)” value (primary cortical neurons) read?
The value was “significantly lower”.

What about the “Aβ levels in the total cytosolic fraction (supernatant after 16,100 g spin)” value (primary cortical neurons; ELISA, followed by p-Ser8Aβ and npAβ) of the same substance?
Its value is “highest levels”.

What about the “Decrease in the pH (LysoSensor response, ΔpH)” value (SH-SY5Y cells) of the same substance?
The value was 0.17 ± 0.12 units.

What does the source list for “amyloid-β phosphorylated at serine residue 8 [p-Ser8Aβ]”?
Aβ levels in the isolated membrane fraction (16,100 g pellet) (primary cortical neurons): highest levels; Aβ levels in the 100,000 g pellet (insoluble cytosolic fraction) (primary cortical neurons; ELISA, compared to npAβ and p-Ser26Aβ): significantly higher; Aβ levels in the 100,000 g supernatant (soluble cytosolic fraction) (primary cortical neurons; ELISA, compared to p-Ser26Aβ): significantly lower; Decrease in the pH (LysoSensor response, ΔpH) (SH-SY5Y cells): did not show any change

For “non-phosphorylated amyloid-β [npAβ, reference compound]”, which “Aβ levels in the isolated membrane fraction (16,100 g pellet)” value (primary cortical neurons) is on record?
The value was “significantly lower”.

And the “Decrease in the pH (LysoSensor response, ΔpH)” value (SH-SY5Y cells)?
The value was 0.13 ± 0.11 units.
